Values after ≈ are worked out from the molar mass of the structure shown. Where two headings read alike, the source gives them in different places.
Columns and labels:
M. hyopneumoniae Str. 11 = experiment: MIC against Mycoplasma in vitro (Friis broth with agarose); type: cell-based; conditions: Mesomycoplasma hyopneumoniae
M. hyopneumoniae MS 16 = experiment: as above; type: cell-based; conditions: Mesomycoplasma hyopneumoniae, MS16, 144 h
M. hyopneumoniae UCD 1 = experiment: as above; type: cell-based; conditions: Mesomycoplasma hyopneumoniae, UCD1, 144 h
M. hyopneumoniae TAM 6N = experiment: as above; type: cell-based; conditions: Mesomycoplasma hyopneumoniae, TAM6N, 144 h
[1] = system: M. hyopneumoniae ATCC 25095; experiment: as above; type: cell-based; conditions: Mesomycoplasma hyopneumoniae, ATCC25095, 144 h
[2] = system: M. hyopneumoniae NCTC 101101; experiment: as above; type: cell-based; conditions: Mesomycoplasma hyopneumoniae, NCTC101101, 144 h
M. hyorhinis ATCC 23234 = experiment: as above; type: cell-based; conditions: Mesomycoplasma hyorhinis, ATCC23234, 144 h
M. hyorhinis ATCC 25021 = experiment: as above; type: cell-based; conditions: Mesomycoplasma hyorhinis, ATCC25021, 144 h; M. hyorhinis ATCC 25021; 6 days at 37° C; read-out: MIC
[3] = system: M. hyosynoviae ATCC 25591; experiment: as above; type: cell-based; conditions: 144 h
M. bovis NCTC 10131 = experiment: microbe, parasite or virus in culture; type: cell-based; conditions: NCTC10131, 144 h
[4] = system: M. bovigenitalium ATCC 14173; experiment: MIC against Mycoplasma in vitro (Friis broth with agarose); type: cell-based; conditions: 144 h
M. dispar NCTC 10125 = experiment: as above; type: cell-based; conditions: 144 h
M. gallisepticum S6 = experiment: as above; type: cell-based; conditions: Mycoplasmoides gallisepticum, 144 h; M. gallisepticum S6; 6 days at 37° C; read-out: MIC
M. pneumoniae ATCC 15492 = experiment: as above; type: cell-based; conditions: Mycoplasmoides pneumoniae, ATCC15492, 144 h; M. pneumoniae ATCC 15492; 6 days at 37° C; read-out: MIC
E. coli NCTC 10418 = experiment: MIC against veterinary bacteria in vitro (Diagnostic Sensitivity Test Agar); conditions: Escherichia coli, NCTC10418, 18 h
Experimental: (§1) The activity of the normonyl derivatives of the Examples against various veterinarily important bacteria, was assayed in vitro using two-fold serial dilutions in Diagnostic Sensitivity Test Agar inoculated with 10^4 organisms.

S. dublin S7 = experiment: as above; conditions: Salmonella enterica, S7, 18 h
Experimental: as §1

S. typhimurium S18 = experiment: as above; conditions: Salmonella enterica, 18 h
Experimental: as §1

Bord. bronchiseptica B08 = experiment: as above; conditions: Bordetella bronchiseptica, B08, 18 h
Experimental: as §1

Bord. bronchiseptica B09 = experiment: as above; conditions: Bordetella bronchiseptica, B09, 18 h
Experimental: as §1

Past. multocida PA1 = experiment: as above; conditions: Pasteurella multocida, PA1, 18 h
Experimental: as §1

Past. haemolytica PA5 = experiment: as above; conditions: Mannheimia haemolytica, PA5, 18 h
Experimental: as §1

[5] = system: Erysipelothrix rhusiopathiae NCTC 8163; experiment: as above; conditions: NCTC8163, 18 h
Experimental: as §1

[6] = system: Corynebacterium pyogenes CY1; experiment: as above; conditions: CY1, 18 h
Experimental: as §1

[7] = system: Staph. aureus B4 (pen. resistant); experiment: as above; conditions: Staphylococcus aureus, 18 h
Experimental: as §1

[8] = system: Staph. aureus 152 (pen. sens); experiment: as above; conditions: Staphylococcus aureus, 18 h
Experimental: as §1

[9] = system: Strep. suis (group D) SPS11; experiment: as above; conditions: Streptococcus suis, 18 h
Experimental: as §1

Strep. uberis SPU1 = experiment: as above; conditions: Streptococcus uberis, SPU1, 18 h
Experimental: as §1

Strep. dysgalactiae SPD1 = experiment: as above; conditions: Streptococcus dysgalactiae, SPD1, 18 h
Experimental: as §1

Strep. agalactiae SPA1 = experiment: as above; conditions: Streptococcus agalactiae, SPA1, 18 h
Experimental: as §1

[10] = M. bovigenitalium ATCC 14173, 6 days at 37° C, read-out: MIC
[11] = M. dispar NCTC 10125, 6 days at 37° C, read-out: MIC
[12] = 144 h, M. hyopneumoniae Str. 11, 6 days at 37° C, read-out: MIC
[13] = M. hyopneumoniae MS 16, 6 days at 37° C, read-out: MIC
[14] = M. hyopneumoniae TAM 6N, 6 days at 37° C, read-out: MIC
[15] = M. hyopneumoniae ATCC 25095, 6 days at 37° C, read-out: MIC
[16] = M. hyopneumoniae NCTC 101101, 6 days at 37° C, read-out: MIC
[17] = M. hyorhinis ATCC 23234, 6 days at 37° C, read-out: MIC
[18] = M. hyosynoviae ATCC 25591, 6 days at 37° C, read-out: MIC

With `CC(=Cc1nnc(-c2cccs2)o1)CC1OCC(CC2OC2C(C)C(C)O)C(O)C1O` (stereo not drawn) [Example 6, 2-(1-Normon-2-yl)-5-(2-thienyl)-1,3,4-oxadiazole A] the MIC (M. hyopneumoniae Str. 11; STR.11, 144 h) was 2.5 µg/mL (≈ 5.55 µM), the MIC (M. hyopneumoniae MS 16) was 2.5 µg/mL (≈ 5.55 µM) and the MIC (M. hyopneumoniae UCD 1) was 5 µg/mL (≈ 11.1 µM). It also gave an MIC (M. hyopneumoniae TAM 6N) of 5 µg/mL (≈ 11.1 µM), an MIC [1] of 2.5 µg/mL (≈ 5.55 µM) and an MIC [2] of 5 µg/mL (≈ 11.1 µM). The MIC (M. hyorhinis ATCC 23234) was 2.5 µg/mL (≈ 5.55 µM), the MIC (M. hyorhinis ATCC 25021) was 1 µg/mL (≈ 2.22 µM) and the MIC [3] was 2.5 µg/mL (≈ 5.55 µM). The MIC (M. bovis NCTC 10131) was 0.05 µg/mL (≈ 0.111 µM), the MIC [4, 10] was 0.25 µg/mL (≈ 0.555 µM) and the MIC (M. dispar NCTC 10125; [11]) was 1 µg/mL (≈ 2.22 µM). For the same molecule, the MIC (M. gallisepticum S6) was > 10 µg/mL, the MIC (M. pneumoniae ATCC 15492) was > 10 µg/mL and the MIC (E. coli NCTC 10418) was > 80 µg/mL. The MIC (S. dublin S7) was > 80 µg/mL, the MIC (S. typhimurium S18) was > 80 µg/mL and the MIC (Bord. bronchiseptica B08) was > 80 µg/mL. It also gave an MIC (Bord. bronchiseptica B09) of 80 µg/mL (≈ 178 µM), an MIC (Past. multocida PA1) of 2.5 µg/mL (≈ 5.55 µM) and an MIC (Past. haemolytica PA5) of 20 µg/mL (≈ 44.4 µM). The MIC [5] was 80 µg/mL (≈ 178 µM), the MIC [6] was > 80 µg/mL and the MIC [7] was 2.5 µg/mL (≈ 5.55 µM). For the same molecule, the MIC [8] was 5 µg/mL (≈ 11.1 µM), the MIC [9] was 80 µg/mL (≈ 178 µM) and the MIC (Strep. uberis SPU1) was 5 µg/mL (≈ 11.1 µM). For the same molecule, the MIC (Strep. dysgalactiae SPD1) was 40 µg/mL (≈ 88.8 µM) and the MIC (Strep. agalactiae SPA1) was 40 µg/mL (≈ 88.8 µM).
For `CC(=Cc1nc(-c2ccccc2)no1)CC1OCC(CC2OC2C(C)C(C)O)C(O)C1O` (stereo not drawn) [Example 15, 5-(1-Normon-2-yl)-3-phenyl-1,2,4-oxadiazole A], the MIC (M. hyopneumoniae Str. 11; [12]) was 5 µg/mL (≈ 11.2 µM), the MIC (M. hyopneumoniae MS 16; [13]) was 5 µg/mL (≈ 11.2 µM) and the MIC (M. hyopneumoniae UCD 1; M. hyopneumoniae UCD 1, 6 days at 37° C, read-out: MIC) was 10 µg/mL (≈ 22.5 µM). It also gave an MIC (M. hyopneumoniae TAM 6N; [14]) of 10 µg/mL (≈ 22.5 µM), an MIC [1, 15] of 5 µg/mL (≈ 11.2 µM) and an MIC [2, 16] of 10 µg/mL (≈ 22.5 µM). It also gave an MIC (M. hyorhinis ATCC 23234; [17]) of 5 µg/mL (≈ 11.2 µM), an MIC (M. hyorhinis ATCC 25021) of 2.5 µg/mL (≈ 5.62 µM) and an MIC [3, 18] of 10 µg/mL (≈ 22.5 µM). It also gave an MIC (M. bovis NCTC 10131) of 0.1 µg/mL (≈ 0.225 µM), an MIC [4, 10] of 0.5 µg/mL (≈ 1.12 µM) and an MIC (M. dispar NCTC 10125; [11]) of 2.5 µg/mL (≈ 5.62 µM). The MIC (M. gallisepticum S6) was > 10 µg/mL, the MIC (M. pneumoniae ATCC 15492) was > 10 µg/mL and the MIC (E. coli NCTC 10418) was > 80 µg/mL. The MIC (S. dublin S7) was > 80 µg/mL, the MIC (S. typhimurium S18) was > 80 µg/mL and the MIC (Bord. bronchiseptica B08) was > 80 µg/mL. The MIC (Bord. bronchiseptica B09) was 80 µg/mL (≈ 180 µM), the MIC (Past. multocida PA1) was 40 µg/mL (≈ 90 µM) and the MIC (Past. haemolytica PA5) was > 80 µg/mL. For the same molecule, the MIC [5] was 40 µg/mL (≈ 90 µM), the MIC [6] was > 80 µg/mL and the MIC [7] was 5 µg/mL (≈ 11.2 µM). For the same molecule, the MIC [8] was 5 µg/mL (≈ 11.2 µM), the MIC [9] was > 80 µg/mL and the MIC (Strep. uberis SPU1) was 2.5 µg/mL (≈ 5.62 µM). For the same molecule, the MIC (Strep. dysgalactiae SPD1) was 10 µg/mL (≈ 22.5 µM).
`CC(=Cc1nc(-c2ccc([N+](=O)[O-])cc2)no1)CC1OCC(CC2OC2C(C)C(C)O)C(O)C1O` (stereo not drawn) [Example 16, 5-(1-Normon-2-yl)-3-(4-nitrophenyl)-1,2,4-oxadiazole] gave an MIC (M. hyopneumoniae Str. 11; STR.11, 144 h) of 0.25 µg/mL (≈ 0.511 µM), an MIC (M. hyopneumoniae UCD 1) of 0.5 µg/mL (≈ 1.02 µM) and an MIC (M. hyopneumoniae TAM 6N; [14]) of 1 µg/mL (≈ 2.04 µM). The MIC [1] was 0.1 µg/mL (≈ 0.204 µM), the MIC [2] was 1 µg/mL (≈ 2.04 µM) and the MIC (M. hyorhinis ATCC 23234; [17]) was 0.25 µg/mL (≈ 0.511 µM). The MIC (M. hyorhinis ATCC 25021) was 0.25 µg/mL (≈ 0.511 µM), the MIC [3, 18] was 5 µg/mL (≈ 10.2 µM) and the MIC (M. bovis NCTC 10131) was 0.25 µg/mL (≈ 0.511 µM). For the same molecule, the MIC [4, 10] was 0.5 µg/mL (≈ 1.02 µM), the MIC (M. dispar NCTC 10125) was 0.1 µg/mL (≈ 0.204 µM) and the MIC (M. gallisepticum S6) was > 10 µg/mL. The MIC (M. pneumoniae ATCC 15492) was > 10 µg/mL, the MIC (E. coli NCTC 10418) was > 80 µg/mL and the MIC (S. dublin S7) was > 80 µg/mL. For the same molecule, the MIC (S. typhimurium S18) was > 80 µg/mL, the MIC (Bord. bronchiseptica B08) was 80 µg/mL (≈ 163 µM) and the MIC (Bord. bronchiseptica B09) was 10 µg/mL (≈ 20.4 µM). For the same molecule, the MIC (Past. multocida PA1) was 5 µg/mL (≈ 10.2 µM), the MIC (Past. haemolytica PA5) was 20 µg/mL (≈ 40.9 µM) and the MIC [5] was 10 µg/mL (≈ 20.4 µM). For the same molecule, the MIC [6] was > 80 µg/mL, the MIC [7] was 1.25 µg/mL (≈ 2.55 µM) and the MIC [8] was 2.5 µg/mL (≈ 5.11 µM). The MIC [9] was 80 µg/mL (≈ 163 µM), the MIC (Strep. uberis SPU1) was 2.5 µg/mL (≈ 5.11 µM) and the MIC (Strep. dysgalactiae SPD1) was 10 µg/mL (≈ 20.4 µM). It also gave an MIC (Strep. agalactiae SPA1) of 5 µg/mL (≈ 10.2 µM).
In the case of `CC(=Cc1noc(-c2ccccc2)n1)CC1OCC(CC2OC2C(C)C(C)O)C(O)C1O` (stereo not drawn) [Example 17, 3-(1-Normon-2-yl)-5-phenyl-1,2,4-oxadiazole], the MIC (M. hyopneumoniae Str. 11; [12]) is reported as 1 µg/mL (≈ 2.25 µM), the MIC (M. hyopneumoniae MS 16; [13]) is reported as 1 µg/mL (≈ 2.25 µM) and the MIC (M. hyopneumoniae UCD 1) is reported as 2.5 µg/mL (≈ 5.62 µM). The MIC (M. hyopneumoniae TAM 6N; [14]) was 2.5 µg/mL (≈ 5.62 µM), the MIC [1, 15] was 1 µg/mL (≈ 2.25 µM) and the MIC [2, 16] was 2.5 µg/mL (≈ 5.62 µM). The MIC (M. hyorhinis ATCC 23234; [17]) was 2.5 µg/mL (≈ 5.62 µM), the MIC (M. hyorhinis ATCC 25021) was 2.5 µg/mL (≈ 5.62 µM) and the MIC [3, 18] was 1 µg/mL (≈ 2.25 µM). The MIC (M. bovis NCTC 10131) was 0.05 µg/mL (≈ 0.112 µM), the MIC [4] was 0.1 µg/mL (≈ 0.225 µM) and the MIC (M. dispar NCTC 10125; [11]) was 0.5 µg/mL (≈ 1.12 µM). The MIC (M. gallisepticum S6) was 10 µg/mL (≈ 22.5 µM), the MIC (M. pneumoniae ATCC 15492) was > 10 µg/mL and the MIC (E. coli NCTC 10418) was > 80 µg/mL. For the same molecule, the MIC (S. dublin S7) was > 80 µg/mL, the MIC (S. typhimurium S18) was > 80 µg/mL and the MIC (Bord. bronchiseptica B08) was > 80 µg/mL. It also gave an MIC (Bord. bronchiseptica B09) of 40 µg/mL (≈ 90 µM), an MIC (Past. multocida PA1) of 2.5 µg/mL (≈ 5.62 µM) and an MIC (Past. haemolytica PA5) of 80 µg/mL (≈ 180 µM). For the same molecule, the MIC [5] was 10 µg/mL (≈ 22.5 µM), the MIC [6] was > 80 µg/mL and the MIC [7] was 1.25 µg/mL (≈ 2.81 µM). It also gave an MIC [8] of 1.25 µg/mL (≈ 2.81 µM), an MIC [9] of 20 µg/mL (≈ 45 µM) and an MIC (Strep. uberis SPU1) of 0.625 µg/mL (≈ 1.41 µM). For the same molecule, the MIC (Strep. dysgalactiae SPD1) was 2.5 µg/mL (≈ 5.62 µM) and the MIC (Strep. agalactiae SPA1) was 5 µg/mL (≈ 11.2 µM).

Source: patent publication US4861788A, “Antibacterial 1-normon-2-yl-heterocyclic compounds” (Beecham Group plc, priority 1983, dated 1989)
